Values quoted from earlier work in patent US6689399B1, “Transdermal delivery of an anti-inflammatory composition” (priority 2000, dated 2004).

Legend:
[1] = single trial, 0.075% capsaicin cream three or four times daily for three weeks; 4/16; placebo 6%
[2] = four trials, 0.025% capsaicin cream four times daily for 6-8 weeks; placebo 42%
[3] = four trials, 0.075% capsaicin cream four times daily for 4-8 weeks; placebo 49%
[4] = three trials, capsaicin cream (two 0.025%, one 0.075%) four times daily for four weeks; placebo 16%
[5] = single trial, 0.075% capsaicin cream four times daily for six weeks; 5/13; placebo 10%

SMILES: COc1cc(CNC(=O)CCCC/C=C/C(C)C)ccc1O [capsaicin, trans-8-methyl-N-vanillyl-6-nonenamide]
- patients reporting pain relief, postherpetic neuralgia [1]: 25%
- patients responding to capsaicin, psoriasis [2]: 68%
- patients responding to capsaicin, diabetic neuropathy [3]: 73%
- patients responding to capsaicin, osteoarthritis [4]: 45%
- patients reporting pain relief, postmastectomy pain [5]: 38%
